Data taken from the supplement of paper PMC10307832.

Tests used:
Assay in all cases: relative viability (nuclei count vs DMSO), 5 days (fraction); higher = more cells survive
[1] = compound: CN[C@@H]1C[C@H]2O[C@@](C)([C@@H]1OC)n1c3ccccc3c3c4c(c5c6ccccc6n2c5c31)C(=O)NC4 [Staurosporine] + CC(C)C[C@H](NC(=O)[C@H](Cc1ccccc1)NC(=O)c1cnccn1)B(O)O [Bortezomib] (partner 0.002 µM)
Procedure, shortened: (§1)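 Lung cancer cell lines were pin-tool dosed in 1536-well plates on the day after seeding, with either a lone drug or a fixed anchor-drug dose plus five library-drug doses (not always all listed) in √10 steps. Nuclei were counted on 4× images after 5 days. Relative viability is the ratio of treated-well to vehicle-well nuclei counts, with each value a median of duplicate plates.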

[2] = compound: O=c1[nH]cc(F)c(=O)[nH]1 [5-Fluorouracil] + COc1cc2c(Oc3ccc(NC(=O)C4(C(=O)Nc5ccc(F)cc5)CC4)cc3F)ccnc2cc1OCCCN1CCOCC1 [Foretinib] (partner 0.25 µM)
Procedure, shortened: as §1

[3] = compound: O=c1[nH]cc(F)c(=O)[nH]1 [5-Fluorouracil] + CS(=O)(=O)CCNCc1ccc(-c2ccc3ncnc(Nc4ccc(OCc5cccc(F)c5)c(Cl)c4)c3c2)o1 [Lapatinib] (partner 2 µM)
Procedure, shortened: as §1

[4] = compound: O=c1[nH]cc(F)c(=O)[nH]1 [5-Fluorouracil] + C[C@@H](Oc1cc(-c2cnn(C3CCNCC3)c2)cnc1N)c1c(Cl)ccc(F)c1Cl [Crizotinib] (partner 1 µM)
Procedure, shortened: as §1

Cell Line	relative viability ([1]; first compound 0.005 µM)	relative viability ([1]; first compound 0.01581 µM)	relative viability ([1]; first compound 0.05 µM)	relative viability ([1]; first compound 0.1581 µM)	relative viability ([1]; first compound 0.5 µM)	relative viability ([2]; first compound 0.02 µM)	relative viability ([2]; first compound 0.2 µM)	relative viability ([2]; first compound 0.6325 µM)	relative viability ([2]; first compound 2 µM)	relative viability ([3]; first compound 0.02 µM)	relative viability ([3]; first compound 0.2 µM)	relative viability ([3]; first compound 0.6325 µM)	relative viability ([3]; first compound 2 µM)	relative viability ([4]; first compound 0.02 µM)	relative viability ([4]; first compound 0.2 µM)	relative viability ([4]; first compound 0.6325 µM)	relative viability ([4]; first compound 2 µM)
LC-2-ad	0.973	0.096	0.508	0.0851	0.0564	0.979	0.663	0.414	0.339	1.05	0.975	0.255	0.264	0.431	0.417	0.289	0.216
ABC-1	0.264	0.232	0.247	0.187	0.185	1.05	1.12	0.991	0.548	1.33	1.23	1.24	1.13	1.17	1.05	0.967	0.871
NCI-H661	0.716	0.453	0.341	0.275	0.228	1.03		1.02	0.972	0.482	0.526	0.558	0.51	0.973	1.11	1.05	1.02
EPLC-272H	1.01	0.195	0.447	0.181	0.126	0.665	0.446	0.296	0.163	0.97	0.879	0.358	0.339	0.841	0.614	0.346	0.228
NCI-H1437	0.356	0.167	0.294	0.0975	0.0786	0.687	0.359	0.273	0.225		0.231	0.142	0.142		0.257	0.2	0.155
EKVX	0.351	0.234	0.262		0.125	0.707	0.321	0.177	0.149		0.184	0.15	0.147	0.842		0.181	
NCI-H1651	0.997	0.772	0.661	0.368	0.349	0.797	0.835	0.537	0.509	1.04	0.701	0.471	0.435	0.825	0.838	0.452	0.38
HCC-15	1.05		0.842	0.376	0.251	1.13	0.961	0.583	0.351	0.967	0.898	0.533	0.314	0.867	0.782	0.499	0.269
NCI-H2347	1.21	0.443	0.359	0.413	0.402	0.689	0.822	0.453	0.513	1.07	0.796	0.48	0.436	0.78	0.534	0.563	0.479
NCI-H1915	1.04		0.327	0.118	0.154	1.01	1.09	1.06	0.81	0.908	0.999	0.97	0.724	0.819	0.949	0.824	0.619
NCI-H650	0.504	0.283	0.315	0.212	0.206	0.976	0.617	0.356	0.308	0.555	0.681	0.524	0.455	0.61	0.589	0.46	0.421
NCI-H1563	0.655	0.571	0.661	0.501	0.438	0.927	0.909	0.862	0.761	0.769	0.942	0.975	0.74	0.798	0.806	0.892	0.699
NCI-H596	1.38	0.549	1	0.282	0.393	0.76	0.794	0.572	0.488	1.05	0.944	0.645	0.516	0.971	0.788	0.64	0.578
HCC-366	1.13		0.208	0.0142	0.0141	0.955	0.732	0.43	0.217	0.996	0.945	0.523	0.0471	0.71	0.531	0.224	0.0745
NCI-H2087	0.761	0.548	0.39	0.175	0.113	1.27	1.05	0.628	0.519	1.03	1.22	0.748	0.548	0.921	0.817	0.541	0.509
RERF-LC-KJ	1.15	0.926	0.674	0.322	0.242	0.901	0.938	0.831	0.823	0.903	0.824	0.846	0.704	0.867	0.841	0.849	0.665
HOP-62	0.976	0.495	0.186	0.0948	0.0922	1.14	1.12	1.22	0.95	0.797	1.03	0.986	0.956	0.938	0.733	0.9	0.781

Cell Line	relative viability ([1]; first compound 0.005 µM)	relative viability ([1]; first compound 0.01581 µM)	relative viability ([1]; first compound 0.05 µM)	relative viability ([1]; first compound 0.1581 µM)	relative viability ([1]; first compound 0.5 µM)	relative viability ([2]; first compound 0.02 µM)	relative viability ([2]; first compound 0.2 µM)	relative viability ([2]; first compound 0.6325 µM)	relative viability ([2]; first compound 2 µM)	relative viability ([3]; first compound 0.02 µM)	relative viability ([3]; first compound 0.2 µM)	relative viability ([3]; first compound 0.6325 µM)	relative viability ([3]; first compound 2 µM)	relative viability ([4]; first compound 0.02 µM)	relative viability ([4]; first compound 0.2 µM)	relative viability ([4]; first compound 0.6325 µM)	relative viability ([4]; first compound 2 µM)
NCI-H2126	1.1	0.817	0.777	0.371	0.387	1.32	0.592	0.399	0.361	0.801	0.444	0.321	0.281	0.962	0.528	0.341	0.307
SW 1573	0.712	0.444	0.192	0.101	0.0911	0.867	1.11	0.784	0.641	1.09	1.32	0.546	0.885	0.824	0.899	0.778	0.463
SK-LU-1	0.906		0.255	0.2	0.179	0.819	0.902	0.75	0.681	0.904	0.956	0.846	0.704	0.98	0.977	0.918	0.74
H3255	0.357	0.228	0.337	0.162	0.136	0.861	1.08	0.872	0.656	0.269	0.264	0.255	0.257	0.835	0.846	0.831	0.561
EMC-BAC-2	0.564	0.564	0.224	0.178	0.137	1.1	1.01	1.05	0.963	0.968	0.975	0.858	0.907	0.871	0.788	0.764	0.767
CAL-12T	0.343	0.227	0.233	0.244	0.186	1.21	1.21	1.07	0.434	0.573	0.897	0.649	0.559	0.802	0.592	0.444	0.312
NCI-H727	0.703	0.354	0.345	0.352	0.158	0.791	0.79	0.903	0.656	1.08	1	0.743	0.594	1.07	1.05	0.891	0.703
EBC-1	0.308	0.234	0.185	0.2	0.14	0.101	0.106	0.0923	0.108	0.189	0.187	0.178	0.249	0.177	0.214	0.206	0.202
NCI-H1355	1.09	0.693	0.259	0.202	0.209	0.883	0.681	0.338	0.256	0.97	0.899	0.39	0.311	1.04	0.672	0.373	0.266
PC-3 [JPC-3]	0.866		0.511	0.275	0.316	1.06	1.03	0.881	0.703	0.479	0.48	0.485	0.476	0.989	0.996	0.882	0.676
NCI-H1650	0.205	0.179	0.197	0.179	0.194	0.963	1.09	0.776	0.37	0.707	0.758	0.563	0.445	0.859	0.801	0.505	0.367
IA-LM	0.188		0.238	0.131	0.07	1.33	0.618	0.496	0.236	0.812	0.461	0.293	0.352	1.03	0.401	0.254	0.289
NCI-H1734	0.741	0.316	0.251	0.127		0.859	0.881	0.756	0.46	1.11	1.14	0.808	0.392	0.709	0.742	0.533	0.37
NCI-H838	0.289	0.0982	0.133	0.15	0.0919	1	1.06	0.523	0.317	0.918	1.03	0.433	0.271	0.873	0.809	0.498	0.297
NCI-H23	0.975	0.215	0.259	0.155	0.107	1.08	0.825	0.52	0.431	1.11	1.09	0.545	0.268	0.613	0.619	0.415	0.305
NCI-H647	0.532	0.164	0.285	0.0743	0.0533	1.25	1.32	0.997	0.796	1.14	1.2	1.07	0.687	1.13	1.1	0.941	0.692
NCI-H520	0.716	0.128	0.307	0.207	0.117	0.555	0.697	0.641	0.563	0.952	0.856	0.459	0.333	0.819	0.832	0.6	0.372
